The source of these data is ChEMBL document CHEMBL2169844, “6β-N-heterocyclic substituted naltrexamine derivative NAP as a potential lead to develop peripheral mu opioid receptor selective antagonists” (Bioorg Med Chem Lett, 2012).

Active and inactive are the calls of the source. No cut-off for these calls is given here.

By Emax is commonly meant the greatest response seen or fitted, relative to the assay's reference. Usually ED50 stands for the dose at which the effect has come halfway, by size or by number of responders.

Series [1] deals with Mus musculus. The series is described as follows: Increase in gastrointestinal motility in morphine-pelleted mouse at 3 mg/kg, sc administered 20 mins before forced charcoal meal measured after 30 mins. It counts as functional, organism-based. Further details: dose 3 mg/kg.
Series [2] concerns Mus musculus. In words: Ratio of ED50 for MNTX to compound ED50 for morphine-pelleted mouse administered 20 mins before forced charcoal meal measured after 30 mins. It counts as functional.
The subject of series [3] is Mus musculus. In words: Increase in gastrointestinal motility in morphine-pelleted mouse at 0.003 to 0.03 mg/kg, sc administered 20 mins before forced charcoal meal measured after 30 mins. Type of series: functional, organism-based.
Series [4] concerns Mus musculus. The series is described as follows: Toxicity in morphine-pelleted mouse assessed as diarrhea at 0.3 mg/kg, sc. Type of series: organism-based. Set-up: dose 0.3 mg/kg, route subcutaneous. The following applies: in vivo.
Series [5] relates to Mus musculus. In words: Increase in gastrointestinal motility in morphine-naive mouse assessed as decrease in stool weight at 0.3 mg/kg, sc administered 20 mins before forced charcoal meal measured after 30 mins. It counts as functional, organism-based. Set-up: dose 0.3 mg/kg.
The test system of series [6] is Mus musculus. The series is described as follows: Increase in gastrointestinal motility in morphine-pelleted mouse at 1 mg/kg, sc administered 20 mins before forced charcoal meal measured after 30 mins. Set-up: dose 1 mg/kg. Type of series: functional, organism-based.
The species entered for series [7] is Mus musculus. The series is described as follows: Ratio of naloxone to compound for toxicity in mouse assessed as reduced wet dog shakes. Type of series: organism-based. As to conditions: in vivo.
The subject of series [8] is Mus musculus. In words: Increase in gastrointestinal motility in morphine-pelleted mouse assessed as decrease in stool weight at 0.3 to 1 mg/kg, sc administered 20 mins before forced charcoal meal measured after 30 mins. It counts as functional, organism-based.
Series [9] is filed under the species Mus musculus. In words: Ratio of naltrexone to compound for toxicity in mouse assessed as reduced wet dog shakes. It counts as organism-based. The following applies: in vivo.
Series [10] concerns Mus musculus. In words: Increase in gastrointestinal motility in morphine-naive mouse assessed as decrease in stool weight at 3 mg/kg, sc administered 20 mins before forced charcoal meal measured after 30 mins. It counts as functional, organism-based. Further details: dose 3 mg/kg.
For series [11], the system named is Mus musculus. In words: Increase in gastrointestinal motility in morphine-pelleted mouse assessed as decrease in stool weight at 0.3 to 3 mg/kg, sc administered 20 mins before forced charcoal meal measured after 30 mins. Type of series: functional, organism-based.
The test system of series [12] is Mus musculus. The series is described as follows: Toxicity in mouse assessed as high locomotory activity measured as jumping up to 50 mg/kg, iv followed by morphine at 32 mg/kg, sc. Type of series: organism-based. The following applies: in vivo.
The subject of series [13] is Mus musculus. In words: Increase in gastrointestinal motility in morphine-naive mouse assessed as decrease in stool weight at 30 mg/kg, sc administered 20 mins before forced charcoal meal measured after 30 mins. Further details: dose 30 mg/kg. Type of series: functional, organism-based.
The subject of series [14] is Mus musculus. The series is described as follows: Toxicity in mouse assessed as lower locomotory activity measured as walking at 32 mg/kg, iv followed by morphine at 32 mg/kg, sc. Type of series: organism-based. The following applies: in vivo.
Series [15] concerns the target Mu-type opioid receptor (Rattus norvegicus) (UniProt P33535). The series is described as follows: Partial agonist activity at mu opioid receptor in rat thalamus assessed as stimulation of [35S]-GTP[gammaS]-binding relative to DAMGO. It counts as functional, tissue-based. A general note: GTPγS resists hydrolysis and so accumulates on activated G proteins.
The subject of series [16] is Mus musculus. The series is described as follows: Increase in gastrointestinal motility in morphine-pelleted mouse assessed as increase in stool weight at 0.3 to 1 mg/kg, sc administered 20 mins before forced charcoal meal measured after 30 mins. It counts as functional, organism-based.
For series [17], the system named is Mus musculus. The series is described as follows: Increase in gastrointestinal motility in sc dosed morphine-pelleted mouse administered 20 mins before forced charcoal meal measured after 30 mins. It counts as functional.
For series [18], the system named is Mus musculus. In words: Toxicity in mouse assessed as wet dog shakes at 50 mg/kg, iv followed by morphine at 32 mg/kg, sc. Type of series: organism-based. The following applies: in vivo.
Series [19] has as its system Mus musculus. The series is described as follows: Increase in gastrointestinal motility in morphine-pelleted mouse at 0.3 mg/kg, sc administered 20 mins before forced charcoal meal measured after 30 mins. It counts as functional, organism-based. Set-up: dose 0.3 mg/kg.
The species named for series [20] is Mus musculus. In words: Ratio of ED50 for increase in gastrointestinal motility in morphine-pelleted mouse to ED50 for toxicity in mouse assessed as lower locomotory activity. It counts as functional.

Chain of Mu-type opioid receptor (Rattus norvegicus) (P33535 whole entry): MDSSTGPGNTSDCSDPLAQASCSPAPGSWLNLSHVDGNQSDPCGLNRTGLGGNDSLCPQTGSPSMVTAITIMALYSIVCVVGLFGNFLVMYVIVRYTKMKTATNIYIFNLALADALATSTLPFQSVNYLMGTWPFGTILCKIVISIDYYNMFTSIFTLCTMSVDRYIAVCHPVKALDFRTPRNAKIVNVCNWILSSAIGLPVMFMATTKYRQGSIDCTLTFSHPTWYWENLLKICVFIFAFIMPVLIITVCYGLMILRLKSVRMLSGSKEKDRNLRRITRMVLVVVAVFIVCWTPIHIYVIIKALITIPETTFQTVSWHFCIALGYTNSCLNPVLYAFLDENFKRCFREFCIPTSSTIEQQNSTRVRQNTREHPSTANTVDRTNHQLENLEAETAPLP

Consider `O=C(N[C@@H]1CC[C@@]2(O)[C@H]3Cc4ccc(O)c5c4[C@@]2(CCN3CC2CC2)[C@H]1O5)c1ccncc1`, for which the outcome in the series with Mus musculus [1], with Mus musculus [6], with Mus musculus [8], with Mus musculus [10] and with Mus musculus [19] was Active. For the same molecule, the “Ratio ED50” value in the series with Mus musculus [2] is recorded as 300; in the series filed under Mus musculus [20] it was greater than 3600. Further, the outcome in the series with Mus musculus [3], with Mus musculus [5], with Mus musculus [11], in the series with Mus musculus [13] and with Mus musculus [16] was inactive. For the same molecule, the Activity entry in the series on Mus musculus [4], with Mus musculus [12], with Mus musculus [14] and with Mus musculus [18] was “Toxic” each time. Also, the Ratio in the series listed under Mus musculus [7] and in the series listed under Mus musculus [9] was 50 each time. Moreover, the maximal effect (Emax) in series [15] worked out at 16.7%. The molecule also had a median effective dose (ED50) in the series with Mus musculus [17] of 0.0088 mg/kg.

The molecule `C[N+]1(CC2CC2)CC[C@]23c4c5ccc(O)c4O[C@H]2C(=O)CC[C@@]3(O)[C@H]1C5` (stereo partly specified) [METHYLNALTREXONE] came in with an ED50 in the series on Mus musculus [17] of 2.5 mg/kg.
